Some results are limits rather than exact numbers.

One assay has as its target T1, Progesterone receptor (Homo sapiens, UniProt P06401).
T1 sequence (P06401 whole entry): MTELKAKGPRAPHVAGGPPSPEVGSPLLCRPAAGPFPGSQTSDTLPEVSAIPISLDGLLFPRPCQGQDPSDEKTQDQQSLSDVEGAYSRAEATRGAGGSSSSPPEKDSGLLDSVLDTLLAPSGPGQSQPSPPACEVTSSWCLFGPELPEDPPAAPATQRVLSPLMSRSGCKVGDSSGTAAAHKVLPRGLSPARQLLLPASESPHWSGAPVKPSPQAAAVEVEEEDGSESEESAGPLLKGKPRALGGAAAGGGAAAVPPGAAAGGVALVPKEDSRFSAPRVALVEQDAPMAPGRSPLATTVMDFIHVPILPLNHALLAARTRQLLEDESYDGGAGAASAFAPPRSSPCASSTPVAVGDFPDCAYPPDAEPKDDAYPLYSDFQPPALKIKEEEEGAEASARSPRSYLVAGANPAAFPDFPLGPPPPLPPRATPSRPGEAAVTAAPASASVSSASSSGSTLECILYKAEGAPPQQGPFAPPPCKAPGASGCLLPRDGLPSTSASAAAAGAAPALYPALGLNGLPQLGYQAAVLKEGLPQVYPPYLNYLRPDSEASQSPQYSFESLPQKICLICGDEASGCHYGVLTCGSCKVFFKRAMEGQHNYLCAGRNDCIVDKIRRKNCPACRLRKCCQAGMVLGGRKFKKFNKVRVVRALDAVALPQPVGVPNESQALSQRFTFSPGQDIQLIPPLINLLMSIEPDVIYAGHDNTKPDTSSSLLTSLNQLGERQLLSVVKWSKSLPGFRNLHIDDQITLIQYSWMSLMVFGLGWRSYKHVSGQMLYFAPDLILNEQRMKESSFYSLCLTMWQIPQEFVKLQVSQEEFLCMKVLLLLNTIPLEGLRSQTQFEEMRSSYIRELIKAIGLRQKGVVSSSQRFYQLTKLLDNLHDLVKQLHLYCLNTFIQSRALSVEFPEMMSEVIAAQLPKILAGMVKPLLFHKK

Assay [1] has as its target T2, Endothelin receptor type B (Homo sapiens, UniProt P24530).
T2 sequence (P24530 whole entry): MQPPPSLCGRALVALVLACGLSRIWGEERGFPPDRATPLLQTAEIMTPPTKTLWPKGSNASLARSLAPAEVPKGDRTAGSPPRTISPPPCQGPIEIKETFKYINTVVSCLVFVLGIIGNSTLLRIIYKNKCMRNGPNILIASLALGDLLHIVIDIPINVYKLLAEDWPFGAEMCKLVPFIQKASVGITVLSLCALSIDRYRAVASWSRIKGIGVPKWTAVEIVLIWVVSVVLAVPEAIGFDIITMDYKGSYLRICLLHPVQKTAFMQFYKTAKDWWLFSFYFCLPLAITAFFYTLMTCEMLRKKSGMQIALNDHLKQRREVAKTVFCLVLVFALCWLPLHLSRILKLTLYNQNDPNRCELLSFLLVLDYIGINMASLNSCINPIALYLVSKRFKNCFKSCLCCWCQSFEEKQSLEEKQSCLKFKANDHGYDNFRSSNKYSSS

In a further assay the target is Estrogen receptor beta (Homo sapiens, UniProt Q92731).
Chain of Estrogen receptor beta (Q92731 whole entry): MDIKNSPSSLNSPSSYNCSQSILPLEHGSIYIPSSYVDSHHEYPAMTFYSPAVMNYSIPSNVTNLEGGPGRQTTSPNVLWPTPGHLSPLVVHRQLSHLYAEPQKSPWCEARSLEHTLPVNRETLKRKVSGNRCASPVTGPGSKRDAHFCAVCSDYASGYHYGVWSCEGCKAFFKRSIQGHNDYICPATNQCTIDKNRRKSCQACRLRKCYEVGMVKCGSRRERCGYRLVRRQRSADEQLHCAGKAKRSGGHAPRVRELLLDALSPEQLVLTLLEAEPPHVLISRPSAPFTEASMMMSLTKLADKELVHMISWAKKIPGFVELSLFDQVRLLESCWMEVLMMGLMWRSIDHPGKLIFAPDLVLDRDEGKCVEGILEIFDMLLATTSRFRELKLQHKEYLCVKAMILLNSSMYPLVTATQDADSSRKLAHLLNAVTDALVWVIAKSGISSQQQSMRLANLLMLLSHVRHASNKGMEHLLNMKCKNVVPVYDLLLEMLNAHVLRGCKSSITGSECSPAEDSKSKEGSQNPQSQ
For assay [2], the target named is 5-hydroxytryptamine receptor 6 (Homo sapiens, UniProt P50406).
Chain of 5-hydroxytryptamine receptor 6 (P50406 whole entry): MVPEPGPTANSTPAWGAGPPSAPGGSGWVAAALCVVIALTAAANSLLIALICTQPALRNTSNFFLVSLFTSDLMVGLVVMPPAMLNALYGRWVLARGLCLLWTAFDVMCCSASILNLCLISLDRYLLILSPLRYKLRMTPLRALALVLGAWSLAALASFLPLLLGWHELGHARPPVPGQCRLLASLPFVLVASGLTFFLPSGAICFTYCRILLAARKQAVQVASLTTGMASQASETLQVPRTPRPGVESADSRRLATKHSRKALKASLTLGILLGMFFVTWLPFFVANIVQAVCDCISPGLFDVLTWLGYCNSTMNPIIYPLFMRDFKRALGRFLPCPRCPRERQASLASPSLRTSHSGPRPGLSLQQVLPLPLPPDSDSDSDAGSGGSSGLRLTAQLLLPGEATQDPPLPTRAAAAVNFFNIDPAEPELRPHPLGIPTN
The target of assay [3] is T3, Alpha-2A adrenergic receptor (Homo sapiens, UniProt P08913).
T3 sequence (P08913 whole entry): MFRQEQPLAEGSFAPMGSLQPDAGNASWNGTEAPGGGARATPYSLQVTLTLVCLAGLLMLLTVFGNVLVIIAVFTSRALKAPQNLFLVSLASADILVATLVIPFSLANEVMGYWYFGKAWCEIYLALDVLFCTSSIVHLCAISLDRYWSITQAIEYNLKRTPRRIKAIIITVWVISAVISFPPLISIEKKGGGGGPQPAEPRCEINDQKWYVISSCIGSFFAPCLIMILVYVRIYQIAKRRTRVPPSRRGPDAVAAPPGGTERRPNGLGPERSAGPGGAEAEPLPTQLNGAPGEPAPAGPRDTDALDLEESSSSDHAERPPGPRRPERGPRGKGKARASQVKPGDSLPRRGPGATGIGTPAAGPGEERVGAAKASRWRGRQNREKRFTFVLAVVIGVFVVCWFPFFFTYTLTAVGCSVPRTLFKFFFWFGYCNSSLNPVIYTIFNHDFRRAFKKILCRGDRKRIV

Assay [4] addresses Synaptic vesicular amine transporter (Rattus norvegicus, UniProt Q01827). The format is functional.
In a further assay the target is D(1A) dopamine receptor (Homo sapiens, UniProt P21728).
Chain of D(1A) dopamine receptor (P21728 whole entry): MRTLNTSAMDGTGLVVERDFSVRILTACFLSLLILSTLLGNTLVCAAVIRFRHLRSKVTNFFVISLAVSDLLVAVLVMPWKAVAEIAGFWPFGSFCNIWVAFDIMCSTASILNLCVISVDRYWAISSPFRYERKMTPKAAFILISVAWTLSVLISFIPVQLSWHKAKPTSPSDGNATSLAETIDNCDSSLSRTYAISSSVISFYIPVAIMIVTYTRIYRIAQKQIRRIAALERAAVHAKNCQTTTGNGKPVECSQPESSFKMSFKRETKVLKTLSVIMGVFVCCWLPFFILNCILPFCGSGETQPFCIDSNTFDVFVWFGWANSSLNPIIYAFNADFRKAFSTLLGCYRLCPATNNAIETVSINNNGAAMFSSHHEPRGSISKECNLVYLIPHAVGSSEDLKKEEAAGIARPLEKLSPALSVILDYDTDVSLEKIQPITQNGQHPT
The target of assay [5] is Hydroxycarboxylic acid receptor 2 (Homo sapiens, UniProt Q8TDS4).
Chain of Hydroxycarboxylic acid receptor 2 (Q8TDS4 whole entry): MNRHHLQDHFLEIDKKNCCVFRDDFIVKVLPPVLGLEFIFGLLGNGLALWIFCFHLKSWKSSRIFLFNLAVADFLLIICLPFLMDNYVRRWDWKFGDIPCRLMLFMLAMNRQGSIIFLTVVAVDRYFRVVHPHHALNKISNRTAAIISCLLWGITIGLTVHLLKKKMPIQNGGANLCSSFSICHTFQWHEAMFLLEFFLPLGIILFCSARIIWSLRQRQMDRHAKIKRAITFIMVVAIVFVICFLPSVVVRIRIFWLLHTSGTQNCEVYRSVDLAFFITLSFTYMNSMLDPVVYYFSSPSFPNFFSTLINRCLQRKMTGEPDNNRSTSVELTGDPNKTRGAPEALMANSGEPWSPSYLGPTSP
Also: assay procedure not described here.

Chain of Synaptic vesicular amine transporter (Q01827 whole entry): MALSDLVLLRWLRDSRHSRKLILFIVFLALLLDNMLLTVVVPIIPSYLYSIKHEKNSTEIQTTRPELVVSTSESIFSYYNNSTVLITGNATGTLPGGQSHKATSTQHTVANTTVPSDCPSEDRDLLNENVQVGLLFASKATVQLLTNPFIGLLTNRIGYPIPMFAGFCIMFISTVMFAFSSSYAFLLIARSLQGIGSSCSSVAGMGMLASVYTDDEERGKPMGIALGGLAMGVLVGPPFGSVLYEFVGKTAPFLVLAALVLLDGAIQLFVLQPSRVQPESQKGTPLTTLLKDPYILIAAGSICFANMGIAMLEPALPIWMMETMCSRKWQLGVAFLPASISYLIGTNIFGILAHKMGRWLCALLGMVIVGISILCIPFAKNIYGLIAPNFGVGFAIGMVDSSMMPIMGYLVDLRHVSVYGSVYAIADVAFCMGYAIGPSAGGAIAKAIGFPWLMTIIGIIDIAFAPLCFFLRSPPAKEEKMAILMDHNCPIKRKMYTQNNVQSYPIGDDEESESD

Broadly, the AC50 is the concentration at which the activity in the assay is half-maximal. Higher therefore signals weaker potency. With `CCOc1nc2cccc(C(=O)O)c2n1Cc1ccc(-c2ccccc2-c2nnn[nH]2)cc1`, the AC50 at Progesterone receptor is more than 30 µM; in assay [1] it was more than 30 µM; on Estrogen receptor beta, more than 30 µM; in assay [2], more than 10 µM; in assay [3] it was more than 10 µM.

Consider `CCCc1nc2c(C)cc(-c3nc4ccccc4n3C)cc2n1Cc1ccc(-c2ccccc2C(=O)O)cc1`, for which the AC50 is more than 30 µM at Progesterone receptor; more than 30 µM in assay [1]; more than 30 µM on Estrogen receptor beta; more than 10 µM in assay [2]; more than 30 µM in assay [3].

In assay [4], `O=C(O)c1ccccc1` [BENZOIC ACID] displayed an AC50 of 18 µM.

The compound `Nc1c(CC(=O)O)cccc1C(=O)c1ccc(Br)cc1` [BROMFENAC] displayed an AC50 at D(1A) dopamine receptor of more than 30 µM.

In turn, `CC(C)NC(=N)NC(=N)Nc1ccc(Cl)c(Cl)c1` [CHLORPROGUANIL] had an AC50 on D(1A) dopamine receptor of more than 30 µM.

As to `CCCNC(=O)NS(=O)(=O)c1ccc(Cl)cc1` [CHLORPROPAMIDE], the AC50 (at Progesterone receptor; in assay [1]; at Estrogen receptor beta) was more than 30 µM throughout.

Take `Cc1nc(Nc2ncc(C(=O)Nc3c(C)cccc3Cl)s2)cc(N2CCN(CCO)CC2)n1` [DASATINIB]: the AC50 is more than 30 µM at Progesterone receptor, more than 10 µM in assay [1], more than 10 µM in assay [2] and more than 10 µM in assay [3].

Take `O=C(O)Cc1ccccc1Nc1c(Cl)cccc1Cl` [DICLOFENAC]: the AC50 was more than 30 µM at Progesterone receptor; more than 30 µM in assay [1]; more than 30 µM on Estrogen receptor beta; more than 10 µM in assay [2]; more than 10 µM in assay [3].

On to `O=C(O)Cc1ccccc1Oc1ccc(Cl)cc1Cl` [FENCLOFENAC], for which the AC50 was more than 30 µM on Progesterone receptor, more than 30 µM in assay [1], more than 10 µM in assay [5] and more than 10 µM in assay [3].

For `Cc1ccc(C)c(OCCCC(C)(C)C(=O)O)c1` [GEMFIBROZIL], the AC50 on Progesterone receptor is more than 30 µM; in assay [1] it was more than 30 µM; in assay [5], more than 10 µM; on Estrogen receptor beta, more than 30 µM; in assay [3], more than 10 µM.

On to `COc1cc(C(C)=O)ccc1OCCCN1CCC(c2noc3cc(F)ccc23)CC1` [ILOPERIDONE], for which the AC50 in assay [2] is 0.257 µM; in assay [3] it was 0.176 µM.

For `CC[C@H](C)C(=O)O[C@H]1C[C@@H](C)C=C2C=C[C@H](C)[C@H](CC[C@@H]3C[C@@H](O)CC(=O)O3)[C@H]21` [LOVASTATIN], the AC50 is 29.7 µM at Progesterone receptor; more than 30 µM in assay [1]; more than 10 µM in assay [5]; more than 30 µM at Estrogen receptor beta; more than 10 µM in assay [3].

As to `CC[C@@H](CO)NC(=O)[C@@H]1C=C2c3cccc4c3c(cn4C)C[C@H]2N(C)C1` [METHYSERGIDE], the AC50 at Progesterone receptor is 16 µM; in assay [1], more than 30 µM; at Estrogen receptor beta, 24.5 µM; in assay [3], 2.42 µM.

In the case of `CN1Cc2c(N)cccc2C(c2ccccc2)C1` (stereo not drawn) [NOMIFENSINE], the AC50 in assay [4] is 28.8 µM.

In assay [4], `C=CC(=O)Nc1cccc(Oc2nc(Nc3ccc(N4CCN(C)CC4)cc3)nc3ccsc23)c1` [OLMUTINIB] showed an AC50 of 0.44 µM.

As for `CN(CCOc1ccc(CC2SC(=O)NC2=O)cc1)c1ccccn1` (stereo not drawn) [ROSIGLITAZONE], the AC50 on Progesterone receptor was more than 30 µM; in assay [1], more than 30 µM; at Estrogen receptor beta, more than 30 µM; in assay [2], more than 10 µM; in assay [3], more than 30 µM.

For the compound `Cc1ccccc1C(=O)Nc1ccc(C(=O)N2CCCC(O)c3cc(Cl)ccc32)c(C)c1` (stereo not drawn) [TOLVAPTAN], in assay [4], the AC50 is more than 30 µM.

Take `CC(C)[C@H](N)C(=O)OCCOCn1cnc2c(=O)[nH]c(N)nc21` [VALACYCLOVIR]: the AC50 at Progesterone receptor is more than 30 µM; in assay [1], more than 30 µM; in assay [5], more than 10 µM; on Estrogen receptor beta it was more than 30 µM; in assay [3], more than 10 µM.

As to `O=C1Cc2cc(CCN3CCN(c4nsc5ccccc45)CC3)c(Cl)cc2N1` [ZIPRASIDONE], the AC50 at Progesterone receptor was 21.8 µM; in assay [1], more than 30 µM; in assay [5], more than 10 µM; in assay [4], 0.0035 µM; on Estrogen receptor beta, more than 30 µM.

These data come from ChEMBL document CHEMBL5291721, “A preclinical secondary pharmacology resource illuminates target-adverse drug reaction associations of marketed drugs” (Nat Commun, 2023).
